Experimental data taken from patent publication US20210301349A1, “COMPOSITIONS AND METHODS FOR TREATING A TUMOR SUPPRESSOR DEFICIENT CANCER” (BETH ISRAEL DEACONESS MEDICAL CENTER, INC., priority 2016, published 2021).
“And” between values parts separate entries of the source, which are not always exact repeats. Equal entries are not always repeated. “Also recorded” adds a separate entry of the source.

Tests used:
Type in all cases: in vivo, mouse
[1] = tested on: Pten^pc−/−; Trp53^pc−/− prostate tumors; test: Tumor growth by MRI in Pten^pc−/−; Trp53^pc−/− mice under drug or antibody treatment; conditions: for tumor volume: individual mice
Protocol: (§1) Mice were allocated at random to experimental groups and studies were performed in an unblended manner. For treatment with the CXCR2 antagonist, SB225002 (Cayman Chemical #13336) was dissolved in DMSO (10 mg/ml) and diluted in vehicle (0.9% NaCl, 0.3% Tween 80) for in vivo administration. Mice (4 months of age) were treated daily for 10 days by intraperitoneal injection (5 mg/kg) and prostate tumor tissue (anterior lobes) was subjected to Flow Cytometry and histological analysis. For MRI analysis, mice (4 months of age) were treated daily for 21 days (Pten^pc−/−; Zbtb7a^pc−/−), for 14 days (Pten^pc−/−; Trp53^pc−/−) or for 14 days (Pten^pc−/−; Pml^pc−/−) by intraperitoneal injection (5 mg/kg). For depletion of Gr-1+/CD11b+ cells, Ly6G-depletion antibody (1A8, BioXcell) and control Rat IgG2a antibody (BioXcell) were diluted in phosphate-buffered saline (PBS) for in vivo administration. Mice (4 months of age) were treated every other day for 10 days by intraperitoneal injection (200-300 μg/mouse). InVivoMAb anti-mouse Ly6G/Ly6C (Gr-1) antibody, clone RB6-8C5 (BE0075, BioXcell), and control Rat IgG2b antibody (BE0090, BioXcell) were diluted in PBS and Pten^pc−/−; Trp53^pc−/− mice were treated every other day for 14 days by intraperitoneal injection (200 μg/mouse). For neutralization of CXCL5, anti-Mouse CXCL5 antibody (Leinco Technologies) and control Rat IgG2a antibody (BioXcell) were diluted in PBS and injected every other day for 21 days by intraperitoneal injection (20 μg/mouse). Tumor volume quantification was performed by using VivoQuant and Image J software. All mouse prostate MRI imaging analysis was performed at Small Animal Imaging Core at BIDMC and acquired on an ASPECT Model M2 1T tabletop scanner.

[2] = tested on: Pten^pc−/−; Pml^pc−/− prostate tumors; test: Tumor growth by MRI in Pten^pc−/−; Pml^pc−/− mice under CXCR2 antagonist treatment; conditions: for tumor volume: Pten-Pml, individual mice; for tumor growth: Pten^pc−/−, Pml^pc−/− mice, versus vehicle
Protocol: as §1

[3] = tested on: Pten^pc−/−; Zbtb7a^pc−/− tumors (anterior prostate lobes); test: Histological analysis of treated Pten^pc−/−; Zbtb7a^pc−/− tumors; conditions: Zbtb7a^pc−/− mice, 10 days of i.p. treatment, versus vehicle or control IgG
Protocol: (§2) Mice were allocated at random to experimental groups and studies were performed in an unblended manner. For treatment with the CXCR2 antagonist, SB225002 (Cayman Chemical #13336) was dissolved in DMSO (10 mg/ml) and diluted in vehicle (0.9% NaCl, 0.3% Tween 80) for in vivo administration. Mice (4 months of age) were treated daily for 10 days by intraperitoneal injection (5 mg/kg) and prostate tumor tissue (anterior lobes) was subjected to Flow Cytometry and histological analysis. For MRI analysis, mice (4 months of age) were treated daily for 21 days (Pten^pc−/−; Zbtb7a^pc−/−), for 14 days (Pten^pc−/−; Trp53^pc−/−) or for 14 days (Pten^pc−/−; Pml^pc−/−) by intraperitoneal injection (5 mg/kg). […] Tumor volume quantification was performed by using VivoQuant and Image J software. […]
(§3) For western blotting, cell lysates were prepared by homogenizing tumor tissue with NP40 Buffer (Boston Bioproducts) supplemented with protease (Roche) and HALT phosphatase inhibitor cocktails (Thermo Scientific) and subsequently subjected to SDS-Gel separation (Invitrogen) and western blotting. […] Western blots were quantified using Image J software. […] Embedding and hematoxylin and eosin staining of sections were performed by the Histology Core at BIDMC and analyzed by a pathologist. […]

NFκB signaling = test: Western blot and expression analysis of Pten^pc−/−; Zbtb7a^pc−/− tumors treated with CXCR2 antagonist; conditions: versus vehicle
Protocol: as §2, §3

Q: For `O=C(Nc1ccc([N+](=O)[O-])cc1O)Nc1ccccc1Br` [SB225002], which tumor volume ([1]; Pten-Trp53, CXCR2i (SB225002 5 mg/kg i.p. daily), row 0 = day 0 baseline, MRI) is on record?
A: Its tumor volume is 67.016 mm3 and 32.276 mm3 and 66.382 mm3.

Q: And the tumor volume ([1]; Pten-Trp53, CXCR2i, row 1 (weekly MRI))?
A: The tumor volume was 53.809 mm3 and 31.739 mm3 and 68.018 mm3.

Q: What about the tumor volume ([1]; Pten-Trp53, CXCR2i, row 2 (weekly MRI, 2 weeks on treatment)) of the same molecule?
A: The tumor volume was 51.807 mm3 and 39.795 mm3 and 63.477 mm3.

Q: And the tumor growth ([1]; Pten^pc−/−, Trp53^pc−/− mice, versus vehicle or control IgG)?
A: The tumor growth was “significantly suppressed the tumor growth; also recorded: significant inhibition of tumor growth”.

Q: What about the tumor volume ([2]; CXCR2i (SB225002 5 mg/kg i.p. daily), row 0 = day 0 baseline, MRI) of the same molecule?
A: The tumor volume was 45.996 mm3 and 37.426 mm3.

Q: What about the tumor volume ([2]; CXCR2i, row 1 (weekly MRI)) of the same molecule?
A: Its tumor volume is 53.662 mm3 and 43.164 mm3.

Q: And the tumor volume ([2]; CXCR2i, row 2 (weekly MRI, 2 weeks on treatment))?
A: Its tumor volume is 56.567 mm3 and 45.972 mm3.

Q: What about the tumor growth [2] of the same molecule?
A: Its tumor growth is “did not show any significant response”.

Q: What about the tumor growth ([2]; listed as CXCR2i) of the same molecule?
A: The tumor growth was “did not respond”.

Q: What about the “tumor burden by histological analysis” value [3] of the same molecule?
A: The value was “reduced tumor burden”.

Q: What about the “tumor burden by histological analysis” value ([3]; listed as CXCR2 inhibitor) of the same molecule?
A: The value was “significantly diminished tumor involvement”.

Q: And the “expression of CXCL5” value (NFκB signaling; Pten^pc−/−, Zbtb7a^pc−/− prostate tumors)?
A: The value was “elevated expression of CXCL5”.

Q: What about the “IκBα protein level (normalized with β-actin)” value (NFκB signaling; western blot of Pten^pc−/−, Zbtb7a^pc−/− tumors) of the same molecule?
A: Its value is “increased IκBα protein levels”.
